System: hypoechoic-echolucent carotid and femoral atherosclerotic plaques
Assay: Grey Scale Median (GSM) ultrasound measurement of echolucent carotid and femoral atherosclerotic plaques, prospective 6-month trial
Type: in vivo, human
Conditions: once daily for 6 months, 100 mg/day of each component; responders/patients in group; ** = significant vs initial value and control
Method: Variation in echogenicity of echolucent carotid and femoral atherosclerotic plaques with combined treatment (Pycnogenol 100 mg+TTFCA 100 mg, with or without Aspirin 100 mg). A prospective, pilot 6-month trial. (TTFCA=total triterpenic fraction of Centella asiatica) This study has evaluated whether a combination of Pycnogenol® and TTFCA, with or without Aspirin, was effective in reducing plaque progression and cardiovascular risk of events by decreasing platelet aggregation, local arterial inflammation and the intima-media scarring process due to inflammation at the level of carotid and femoral arteries bifurcations. This prospective placebo-controlled trial had the purpose of evaluating the effects of Pycnogenol® and TTFCA, with or without Aspirin, selectivity on hypoechoic-echolucent plaques. The sonographic examination of carotid plaques was made with high-resolution ultrasound. Capturing plaques images, digital image processing, and normalization were standardized. The interobserver, […], gain-level variability were also standardized using as reference blood (black) for the most echolucent parts of the plaque and the adventitia (white) as the most echogenic part. The technique for plaque characterization and GSM (Grey Scale Median) measurements had been previously described in details. […]

## CC(=O)Oc1ccccc1C(=O)O [Aspirin, acetylsalicylic acid]
  At 6 months: number of patients with an increase of plaques Grey Scale Median of at least 5 points: 2/18

Reference: patent US9308230B2, “Combination of proanthocyanidins and centella asiatica for the treatment of atherosclerosis” (HORPHAG RESEARCH IP, priority 2009, dated 2016)
